{
  "source": "patent US9725490B2",
  "about": "“ERAP1-derived peptide and use thereof” (TOKUSHIMA UNIVERSITY, priority 2011, dated 2017)",
  "key": {"[1]": {"tested_on": "transcriptional activity of ERα (AP-1)", "test": "AP-1-luciferase reporter assay in MCF-7 cells", "type": "cell-based, human", "conditions": "10 nM E2 24 hours", "protocol": "FIG. 3-3 is as diagram illustrating the results of the luciferase assay by which the inhibition effect of the ERAP1-peptide was evaluated. MCF-7 cells temporarily transfected with an ERE-luciferase reporter vector (F) or an AP-1-luciferase reporter vector (F) were treated with the ERAP1-peptide, the scramble peptide or the mutant peptide in the concentrations shown in the […]. Then, immediately, the cells were stimulated with 10 nM E2 for 24 hours. TAM indicates the tamoxifen treatment.\nFIG. 4-3 is a diagram illustrating that the ERAP1-peptide promotes nuclear translocation of PHB2. (C) and (D) are figures that show the results of the luciferase assay by which the inhibition effect of the ERAP1-peptide on the ERα transcriptional activity was evaluated. MCF-7 cells temporarily transfected with an ERE-luciferase reporter vector (C) or an AP-1-luciferase reporter vector (D) were treated with the ERAP1-peptide in the concentrations shown in the figure or 10 nM tamoxifen. Then, immediately, the cells were stimulated with 10 nM E2 thr 24 hours.\nFor ERE reporter assay, MCF-7 cells were transfected with ERE reporter (SABiosciences, Frederick, Md., USA) in accordance with the instruction of the manufacturer. For AP-1 reporter assay, MCF-7 cells were transfected with AP-1 reporter (mouse IL-11 promoter comprising two tandem AP-1 sites subcloned into PGL2-basic vector), c-fos, c-Jun and pRL-TK as an internal standard. After 16 hours from the transfection, the culture medium was exchanged with an assay culture medium (Opti-MEM, 10% FBS, 0.1 mM NEAA, 0.1 mM Sodium pyruvate and 10 μg/ml insulin) After 24 hours from the transfection, the cells were treated with E2 and/or the ERAP1-peptide or 24 hours. The cells were harvested, and the activities of luciferase and Renilla-luciferase were evaluated using Promega dual luciferase reporter assay (Tokyo, Japan). In consideration of the transfection efficiency, all of the data were standardized by the activity of Renilla-luciferase."}, "KPL-3C tumor": {"tested_on": "KPL-3C tumor", "test": "In vivo inhibition of tumor proliferation, concomitant use with tamoxifen, KPL-3C transplant", "parameters": "species or system BALB/c nude mouse", "conditions": "intraperitoneal every day, day 14", "text": "FIG. 18 is a diagram illustrating the influence of concomitant use of the ERAP1-peptide and tamoxifen on tumor proliferation in a human breast cancer-transplanted mouse. KPL-3 cells were subcutaneously transplanted into the breast fat body of a BALB/c nude mouse. The treatment test individuals/group) was initiated (day 0) when the volume of the tumor reached about 50-80 mm^3 in the absence E2.\nKPL-3 cells were subcutaneously transplanted into the breast fat body of a BALB/c nude mouse. When the volume of the tumor reached about 50-80 mm^3 in the absence of E2, the treatment test (5 individuals/group) was initiated (day 0). KPL-3C tumor heterotransplant-carrying mouse was administered with the ERAP1-peptide alone (3.5, 7 and 14 mg/kg), the scramble peptide alone (14 mg/kg), tamoxifen alone (4 mg/kg) or a combination of the ERAP1-peptide (14 mg/kg) and tamoxifen (4 mg/kg) every day by intraperitoneal injection."}, "[2]": {"target": "T1, binding of inherent ERAP1 and inherent PHB2/REA (Homo sapiens, UniProt Q99623)", "T1 construct": "endogenous in cells; host or cells: MCF-7 and KPL-3C breast cancer cells", "T1 sequence (Q99623 2-299 limits assumed)": "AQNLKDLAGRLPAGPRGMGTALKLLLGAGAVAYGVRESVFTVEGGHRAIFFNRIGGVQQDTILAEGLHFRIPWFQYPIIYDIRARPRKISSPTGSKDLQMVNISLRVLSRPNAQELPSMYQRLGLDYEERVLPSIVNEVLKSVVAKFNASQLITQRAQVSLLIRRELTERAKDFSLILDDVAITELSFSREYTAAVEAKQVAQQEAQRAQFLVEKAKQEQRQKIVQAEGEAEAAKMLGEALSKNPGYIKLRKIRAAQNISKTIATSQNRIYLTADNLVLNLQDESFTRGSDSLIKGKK", "test": "Inhibition of ERAP1-PHB2/REA binding in cells, immunoprecipitation-Western blotting", "type": "cell-based", "conditions": "MCF-7 and KPL-3C cells; 10 μM peptide; 10 nM E2 24 hours"}, "ERα phosphorylation": {"tested_on": "ERα phosphorylation", "test": "E2-induced ERα phosphorylation, Western blotting, MCF-7", "type": "cell-based, human", "conditions": "3 hours to 24 hours after E2"}},
  "data": [
    {"molecule": "CSCC[C@H](NC(=O)[C@H](CCC(N)=O)NC(=O)[C@H](CCCNC(=N)N)NC(=O)[C@H](CCCNC(=N)N)NC(=O)[C@H](CCCNC(=N)N)NC(=O)[C@H](CCCNC(=N)N)NC(=O)[C@H](CCCNC(=N)N)NC(=O)[C@H](CCCNC(=N)N)NC(=O)[C@H](CCCNC(=N)N)NC(=O)[C@H](CCCNC(=N)N)NC(=O)[C@H](CCCNC(=N)N)NC(=O)[C@H](CCCNC(=N)N)NC(=O)[C@@H](N)CCCNC(=N)N)C(=O)N[C@@H](CC(C)C)C(=O)N[C@@H](CO)C(=O)N[C@@H](CC(=O)O)C(=O)N[C@@H](CC(C)C)C(=O)N[C@H](C(=O)N[C@@H](CC(C)C)C(=O)N[C@@H](CCC(N)=O)C(=O)N[C@@H](CC(C)C)C(=O)N[C@@H](CCCNC(=N)N)C(=O)N[C@@H](CCC(N)=O)C(=O)N[C@@H](CCCNC(=N)N)C(=O)O)[C@@H](C)O", "note": "[ERAP1-peptide]", "values": [
      {"measurement": "transcriptional activity of ERα in AP-1", "setting": "[1]", "result": "suppressed the transcriptional activity of ERα"},
      {"measurement": "antitumor effect (tumor volume)", "setting": "KPL-3C tumor", "result": "dose-dependent (3.5, 7 and 14 mg/kg) antitumor effect"},
      {"measurement": "inhibition of the binding of inherent ERAP1 and inherent PHB2/REA", "setting": "[2]", "result": "remarkably inhibited"},
      {"measurement": "E2-dependent phosphorylation of six sites of ERα", "setting": "ERα phosphorylation", "result": "suppressed to the same degree as that of no administration of E2"}
    ]},
    {"molecule": "DRQLQLSTLQRML (SEQ ID NO: 28) (ERAP1-scramble peptide) [reference compound]", "values": [
      {"measurement": "transcriptional activity of ERα in AP-1", "setting": "[1]", "result": "no change was recognized"},
      {"measurement": "antitumor effect (tumor volume)", "setting": "KPL-3C tumor", "result": "the effect was not recognized"},
      {"measurement": "inhibition of the binding of inherent ERAP1 and inherent PHB2/REA", "setting": "[2]", "result": "not recognized in any of the cells"},
      {"measurement": "E2-dependent phosphorylation of six sites of ERα", "setting": "ERα phosphorylation", "result": "the suppression effect was not recognized"}
    ]}
  ]
}
